Test results published in ChEMBL document CHEMBL1201862, “PubChem BioAssay data set” (2004).
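Cultured in 96-well plates, cells were exposed to test compound for 48 hours across five concentrations. GI50 is the concentration that inhibits growth by half.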 Calls of active or inactive are those of the source. Cut-off read from the data, not from the text of the source: active = GI50 up to about 1.1 µM and inactive = higher.

Experiments:
Test in all cases: growth of human tumour cells (NCI), 48 h
[1] = test system: CAKI-1
[2] = test system: HCT-116
[3] = test system: RXF 631
[4] = test system: EKVX
[5] = test system: SK-MEL-5
[6] = test system: NCI-H460
[7] = test system: HCT-15
[8] = test system: XF498
[9] = test system: SK-OV-3
[10] = test system: RPMI-8226
[11] = test system: OVCAR-8
[12] = test system: U-251
[13] = test system: NCI-H23
[14] = test system: SF-539
[15] = test system: CCRF-CEM
[16] = test system: DMS-114
[17] = test system: NCI-H522
[18] = test system: HT-29
[19] = test system: OVCAR-3
[20] = test system: UACC-62

| Compound | GI50 [1] | GI50 [2] | GI50 [3] | GI50 [4] | GI50 [5] | GI50 [6] | GI50 [7] [µM] | GI50 [8] | GI50 [9] | GI50 [10] | GI50 [11] | GI50 [12] | GI50 [13] | GI50 [14] | GI50 [15] | GI50 [16] | GI50 [17] | GI50 [18] | GI50 [19] | GI50 [20] |
| --- | --- | --- | --- | --- | --- | --- | --- | --- | --- | --- | --- | --- | --- | --- | --- | --- | --- | --- | --- | --- |
| O=C=C=P(c1ccccc1)(c1ccccc1)c1ccccc1 | 59.4 µM (inactive) | 34.4 µM (inactive) | 62.1 µM (inactive) | 46.7 µM (inactive) | 21.5 µM (inactive) | 86.9 µM (inactive) | > 100 | 29 µM (inactive) | 48.3 µM (inactive) | 27.3 µM (inactive) | 72.6 µM (inactive) | 72.1 µM (inactive) | 31.3 µM (inactive) | > 100 µM (inactive) | 76 µM (inactive) | 22.8 µM (inactive) | – | – | – | – |
| COC(=O)C1C(C)N1C (stereo unspecified) | – | – | > 100 µM (inactive) | > 100 µM (inactive) | > 100 µM (inactive) | > 100 µM (inactive) | > 100 | 64.3 µM (inactive) | > 100 µM (inactive) | > 100 µM (inactive) | > 100 µM (inactive) | > 100 µM (inactive) | > 100 µM (inactive) | > 100 µM (inactive) | > 100 µM (inactive) | > 100 µM (inactive) | > 100 µM (inactive) | > 100 µM (inactive) | > 100 µM (inactive) | > 100 µM (inactive) |
| CCOC(=O)NC(Nc1ncccn1)(C(=O)OCC)C(F)(F)F (stereo unspecified) | > 100 µM (inactive) | > 100 µM (inactive) | – | > 100 µM (inactive) | > 100 µM (inactive) | > 100 µM (inactive) | > 100 | – | > 10 µM (inactive) | > 100 µM (inactive) | > 100 µM (inactive) | > 100 µM (inactive) | > 100 µM (inactive) | > 100 µM (inactive) | > 100 µM (inactive) | – | > 100 µM (inactive) | > 100 µM (inactive) | > 100 µM (inactive) | 63.4 µM (inactive) |
